pIC50: −log10 of the molar value.
Target: Rho-associated protein kinase 2 (Homo sapiens, UniProt O75116)
Experiment: Kinase Inhibition Assay: The following assay protocol is for measuring the phosphorylation of a peptide substrate (FAM-[…]-OH wherein FAM is carboxyfluorescein). The peptide is >98% purity by Capillary Electrophoresis. The peptide is phosphorylated by the protein kinase ROCK1 or ROCK2. The ROCK1 or ROCK2 enzyme, substrate, and cofactors (ATP and Mg2+) are combined in a well of a microtiter plate and incubated for 3 hours at 25° C. in the presence or absence of an inhibitor compound. At the end of the incubation, the reaction is quenched by the addition of an EDTA-containing buffer. The substrate and product are separated and quantified electrophoretically using the microfluidic-based LABCHIP® 3000 Drug Discovery System from Caliper Life Sciences (Hopkinton, Mass.).The components of the assay mixture are:100 mM HEPES, pH 7.50.1% BSA0.01% Triton X-1001 mM DTT10 mM MgCl210 μM Sodium Orthovanadate10 LM Beta-Glycerophosphate5 μM ATP (for ROCK1) or 7 μM ATP (for ROCK2)1% DMSO (from compound)1.25 μM FAM-[…]-OH3 nM ROCK1 or 2.5 nM ROCK2 enzymeSubstrate and product peptides present in each sample are separated electrophoretically using the LABCHIP® 3000 capillary electrophoresis instrument. As substrate and product peptides are separated two peaks of fluorescence are observed. […]

Chain of Rho-associated protein kinase 2 (O75116 whole entry): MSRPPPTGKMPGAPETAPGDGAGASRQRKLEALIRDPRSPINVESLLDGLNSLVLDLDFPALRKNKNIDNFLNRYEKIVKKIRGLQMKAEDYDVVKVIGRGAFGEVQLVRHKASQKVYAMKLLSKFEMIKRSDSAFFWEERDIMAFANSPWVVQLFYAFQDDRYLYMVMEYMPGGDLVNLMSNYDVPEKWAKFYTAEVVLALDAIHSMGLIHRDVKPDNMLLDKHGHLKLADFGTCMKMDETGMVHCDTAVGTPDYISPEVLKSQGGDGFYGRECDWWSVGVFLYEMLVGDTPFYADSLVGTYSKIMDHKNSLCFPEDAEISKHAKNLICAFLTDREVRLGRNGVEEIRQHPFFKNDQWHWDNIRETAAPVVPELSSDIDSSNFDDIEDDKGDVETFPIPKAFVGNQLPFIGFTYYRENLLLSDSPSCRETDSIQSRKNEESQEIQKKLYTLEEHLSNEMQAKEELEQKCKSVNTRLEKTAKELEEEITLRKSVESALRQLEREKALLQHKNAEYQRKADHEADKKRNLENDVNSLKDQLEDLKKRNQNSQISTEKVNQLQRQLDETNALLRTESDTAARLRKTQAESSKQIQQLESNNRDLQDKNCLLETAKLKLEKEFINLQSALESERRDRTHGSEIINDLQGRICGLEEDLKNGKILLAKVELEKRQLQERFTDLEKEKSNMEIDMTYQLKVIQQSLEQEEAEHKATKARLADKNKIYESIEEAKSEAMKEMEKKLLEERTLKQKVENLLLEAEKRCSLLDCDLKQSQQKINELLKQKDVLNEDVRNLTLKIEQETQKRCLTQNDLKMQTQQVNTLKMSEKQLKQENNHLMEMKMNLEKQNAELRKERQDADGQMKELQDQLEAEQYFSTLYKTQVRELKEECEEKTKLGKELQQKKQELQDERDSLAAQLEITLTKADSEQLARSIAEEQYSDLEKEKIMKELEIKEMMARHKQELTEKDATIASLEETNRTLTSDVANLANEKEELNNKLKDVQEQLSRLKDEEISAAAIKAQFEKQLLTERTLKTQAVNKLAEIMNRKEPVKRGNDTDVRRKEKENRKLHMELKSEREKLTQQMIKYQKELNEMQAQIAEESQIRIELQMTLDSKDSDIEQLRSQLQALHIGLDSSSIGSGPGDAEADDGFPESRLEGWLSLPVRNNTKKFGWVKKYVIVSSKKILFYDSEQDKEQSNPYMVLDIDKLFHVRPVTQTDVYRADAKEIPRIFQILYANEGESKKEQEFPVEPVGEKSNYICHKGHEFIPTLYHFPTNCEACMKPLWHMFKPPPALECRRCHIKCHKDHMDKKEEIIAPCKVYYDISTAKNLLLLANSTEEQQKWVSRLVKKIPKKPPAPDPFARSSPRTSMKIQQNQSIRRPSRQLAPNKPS

pIC50: 8.92
Compound: C[C@@H](NC(=O)c1ccc(-c2ccncc2)cc1)c1cccc(C(=O)NC2CCCC2)c1

— ChEMBL document CHEMBL5727880, “Amide compounds as kinase inhibitors, compositions and methods of treatment” (2020)
